Laboratory results as given in publication PMC9867241, “Antioxidant and Cytotoxic Activity of New Polyphenolic Derivatives of Quinazolin-4(3H)-one: Synthesis and In Vitro Activities Evaluation” (Pharmaceutics, 2022).
≈ marks a conversion by molar mass, not a printed value.

Key:
[1] = DPPH˙ radical scavenging assay
Procedure, shortened: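 Compounds from 1 mg/mL DMSO stocks tested at various concentrations against DPPH˙, following Brand-Williams. Scavenging followed as absorbance decrease at 517 nm by spectrophotometer; triplicate determinations, averaged.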

[2] = Cupric reducing antioxidant capacity (CUPRAC) assay; parameters: concentration or dose not given beside the values; conditions: for CUPRAC, % of Activity of Trolox: relative to Trolox; for CUPRAC, % of Activity of Ascorbic Acid: relative to ascorbic acid
Protocol: The ability to donate electrons was evaluated for the compounds 5a–d and 6a–d, by the CUPRAC (CUPric reducing antioxidant capacity) method. The absorbance was measured against a blank sample, at λ = 450 nm. The assay was performed based on our group’s previous report by the adaptation of the initial report of Alam et al., Özyürek et al. and Apak et al.. With the use of Equation (4), the cupric ion reduction by compounds 5a–d and 6a–d was expressed as a percentage of the reference compound activity.
The Cu^2+ ions are reduced to Cu^+ ions by the electron-donating compounds. The Cu^+ ions are chelated by neocuproine, giving a colored complex with absorbance proportional to the quantity of Cu^+ ions that resulted.

[3] = NO˙ radical scavenging assay (Griess reaction); conditions: PBS pH 7.4, sodium nitroprusside
Procedure, shortened: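 Nitric oxide radicals were generated by decomposition of sodium nitroprusside in PBS at pH 7.4 in the presence of test compounds. Uncaptured NO˙ was detected by Griess reaction with sulfanilic acid and naphthyl ethylenediamine, forming an azo dye read at 546 nm.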

[4] = Molecular properties computed with SwissADME; conditions: ratio of computed water solubilities
From the text: In order to obtain preliminary information regarding molecular properties which could influence the pharmacokinetics of the compounds, we obtained them using SwissADME [44]. The evaluated molecular properties were the topological polar surface area (TPSA), octanol–water partition coefficient expressed as Moriguchi’s LogP [46], water solubility and violations of the Lipinski’s rule of five.

[5] = test system: A549 (lung adenocarcinoma) cells; experiment: Cytotoxicity, Alamar blue assay, A549 cells; type: cell-based; conditions: Homo sapiens, 24 h exposure
Procedure, shortened: (§1)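 Cells were seeded to reach 70–80% confluence at 24 h, then exposed to compounds at 12.5–100 µg/mL for 24 h. Viability was read by resazurin (200 µM, 4 h) fluorescence relative to 0.2% DMSO control. IC50 came from a 4-parameter logistic fit.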

[6] = test system: LNCaP (prostate carcinoma) cells; experiment: Cytotoxicity, Alamar blue assay, LNCaP cells; type: cell-based; conditions: Homo sapiens, 24 h exposure
Procedure, shortened: as §1

[7] = ABTS˙+ radical scavenging assay
Protocol: The stock solutions (1 mg/mL) of the tested compounds and the controls were obtained, by dissolving the substances in dimethyl sulfoxide (DMSO). Using Jasco V-530, an UV-VIS spectrophotometer (Jasco International Co., Ltd., Tokyo, Japan), we performed the colorimetric determinations in low-volume single-use 10 mm width cuvettes.
The assays were performed in triplicate and the results are presented as averages for each assay.

[8] = Phosphomolybdate assay for total antioxidant capacity (TAC); parameters: concentration or dose not given beside the values; conditions: for TAC, % of Activity of Trolox: relative to Trolox; for TAC, % of Activity of Ascorbic Acid: relative to ascorbic acid
From the text: Using the phosphomolybdate assay, we determined the total antioxidant capacity (TAC) of the tested compounds. We measured the solutions’ absorbances against a blank sample at λ = 695 nm, using a previously reported procedure by our group, based on initial literature reports. Using Equation (4), we calculated the TAC of 5a–d and 6a–d compounds.
At acidic pH, the tested compounds transfer one electron to Mo^6+ to reduce it to Mo^5+.

| Compound | melting point [°C] | IC50 [1] [µM] | IC50 (DPPH˙ scavenging) [1] [mg/L] | % of DPPH˙ Scavenging ([1]; 1.25 µg/mL) | % of DPPH˙ Scavenging ([1]; 2.5 µg/mL) | % of DPPH˙ Scavenging ([1]; 3.75 µg/mL) | % of DPPH˙ Scavenging ([1]; 5 µg/mL) | % of DPPH˙ Scavenging ([1]; 7.5 µg/mL) | % of DPPH˙ Scavenging ([1]; 10 µg/mL) | % of DPPH˙ Scavenging ([1]; 12.5 µg/mL) | % of DPPH˙ Scavenging ([1]; 15 µg/mL) | CUPRAC, % of Activity of Trolox [2] [%] | CUPRAC, % of Activity of Ascorbic Acid [2] [%] | % of NO˙ Scavenged [3] [%] | IC50 [5] [mg/L] | IC50 [6] [mg/L] | IC50 [7] [µM] | IC50 (ABTS˙^+ scavenging) [7] [mg/L] | % of ABTS˙^+ Scavenging ([7]; 0.83 µg/mL) [%] | % of ABTS˙^+ Scavenging ([7]; 1.67 µg/mL) [%] | further results |
| --- | --- | --- | --- | --- | --- | --- | --- | --- | --- | --- | --- | --- | --- | --- | --- | --- | --- | --- | --- | --- | --- |
| CCn1c(SCC(=O)NN=Cc2ccc(O)c(O)c2O)nc2ccccc2c1=O [Compound 5c, 2-((3-Ethyl-4-oxo-3,4-dihydroquinazolin-2-yl)thio)-N’-(2,3,4-trihydroxybenzylidene)acetohydrazide] | 208 | 4.46 | 1.85 (≈ 4.46 µM) | 44.32% | 55.40% | 64.87% | 73.44% | 90.15% | + (+ represents more than 95%) | + (+ represents more than 95%) | + (+ represents more than 95%) | 110.95 | 116.41 | 43.21 | 49.1 | 35.9 | 3.86 | 1.60 (≈ 3.86 µM) | 39.05 | 52.25 | times more soluble in water than 6b [4]: 24 times; % of ABTS˙^+ Scavenging ([7]; 3.33 µg/mL): 72.57%; % of ABTS˙^+ Scavenging ([7]; 4.99 µg/mL): + (+ represents more than 95%); % of ABTS˙^+ Scavenging ([7]; 6.66 µg/mL): + (+ represents more than 95%); % of ABTS˙^+ Scavenging ([7]; 9.99 µg/mL): + (+ represents more than 95%); % of ABTS˙^+ Scavenging ([7]; 13.32 µg/mL): + (+ represents more than 95%); TAC, % of Activity of Trolox [8]: 163.49%; TAC, % of Activity of Ascorbic Acid [8]: 84.73% |
| CCCCn1c(SCC(=O)NN=Cc2ccc(O)c(O)c2O)nc2ccccc2c1=O [Compound 5d, 2-((3-Butyl-4-oxo-3,4-dihydroquinazolin-2-yl)thio)-N’-(2,3,4-trihydroxybenzylidene)acetohydrazide] | 239 | 4.93 | 2.18 (≈ 4.93 µM) | 41.12% | 53.03% | 63.53% | 71.70% | 87.99% | + (+ represents more than 95%) | + (+ represents more than 95%) | + (+ represents more than 95%) | 106.43 | 111.66 | 35.14 | 42.1 | 56.8 | 3.5 | 1.55 (≈ 3.5 µM) | 41.98 | 52.25 | % of ABTS˙^+ Scavenging ([7]; 3.33 µg/mL): 67.46%; % of ABTS˙^+ Scavenging ([7]; 4.99 µg/mL): 81.06%; % of ABTS˙^+ Scavenging ([7]; 6.66 µg/mL): + (+ represents more than 95%); % of ABTS˙^+ Scavenging ([7]; 9.99 µg/mL): + (+ represents more than 95%); % of ABTS˙^+ Scavenging ([7]; 13.32 µg/mL): + (+ represents more than 95%); TAC, % of Activity of Trolox [8]: 117.87%; TAC, % of Activity of Ascorbic Acid [8]: 61.09% |
| C=CCn1c(SCC(=O)NN=C(C)c2ccc(O)cc2O)nc2ccccc2c1=O [Compound 6a, 2-((3-Allyl-4-oxo-3,4-dihydroquinazolin-2-yl)thio)-N’-(1-(2,4-dihydroxyphenyl)ethylidene)acetohydrazide] | 230 | > 30 | >15 | - (- represents less than 5%) | - (- represents less than 5%) | - (- represents less than 5%) | - (- represents less than 5%) | - (- represents less than 5%) | - (- represents less than 5%) | 12.28% | 21.34% | 12.83 | 13.46 | 31.82 | 35.7 | 43.4 | 16.9 | 7.17 (≈ 16.9 µM) | 27.03 | 30.08 | % of ABTS˙^+ Scavenging ([7]; 3.33 µg/mL): 37.19%; % of ABTS˙^+ Scavenging ([7]; 4.99 µg/mL): 42.27%; % of ABTS˙^+ Scavenging ([7]; 6.66 µg/mL): 50.03%; % of ABTS˙^+ Scavenging ([7]; 9.99 µg/mL): 60.55%; % of ABTS˙^+ Scavenging ([7]; 13.32 µg/mL): 70.24%; TAC, % of Activity of Trolox [8]: 94.38%; TAC, % of Activity of Ascorbic Acid [8]: 48.91% |
